Test results as given in patent publication US20030125287A1, “Antisense oligonucleotides and methods to induce tumor cell death” (Hybridon, Inc., priority 2001, published 2003).
“Also recorded” adds a separate entry of the source. Oligonucleotides are written 5' to 3', each unit as a sugar letter and its base; * is a phosphorothioate linkage, no mark a phosphodiester; rarer units and linkages stand in square brackets, end groups in braces. Plain capitals give the bases only. d = 2'-deoxy (DNA)

Assays:
Assay type in all cases: cell-based, human
TC620 cells [1] = test: TUNEL assay in TC620 cells
Method: To confirm the results of the PARP data that survivin down-regulation induced apoptosis, a TUNEL assay was performed. The TUNEL reaction preferentially labels cleaved genomic DNA generated during apoptosis, by the addition of fluorescein dUTP at strand breaks. The TUNEL assay was performed on lipofectin, mismatch oligonucleotide 1132, and survivin antisense oligonucleotide-treated TC620 cells. The percentages of TUNEL-positive cells treated with survivin antisense oligonucleotides 904 or 906 at 400 nM concentration were 52% and 54%, respectively. At 600 nM, 63% of survivin antisense oligonucleotide 904- and 906-treated TC620 cells were TUNEL-positive. Only 4% of the cells were TUNEL-positive in the presence of lipofectin or mismatch oligonucleotide 1132.
The TUNEL assay was performed to assess apoptotic cell death in survivin antisense oligonucleotide-treated TC620 cells using the In Situ Cell Death Detection Kit, Fluorescein (Roche Molecular Biochemicals, Indianapolis, Ind.). The TUNEL reaction preferentially labels cleaved genomic DNA generated during apoptosis, by the addition of fluorescein dUTP at strand breaks. Lipofectin, mismatch oligonucleotide 1132 or survivin antisense oligonucleotide-treated TC620 cells were fixed and permeabilized as described for PI staining. Cells were washed and incubated in the TUNEL reaction mixture, prepared according to the manufacture's recommendations, for 1 h at 37° C. Omission of the terminal deoxynucleotidyl transferase in the label solution served as a negative control for the TUNEL fluorescence staining. Cells were washed twice and counterstained with the DNA specific dye DAPI (1:1000 of a 1 mg/ml stock; 15 min at room temperature). Cells were examined with an Olympus 1×70 inverted microscope. For each treatment 15 random, 40×objective fields consisting of about 1000 cells were examined in duplicate chamber slides. TUNEL-positive nuclei were expressed as a percent of the total number of cells per individual field.

TC620 cells [2] = test: Trypan blue assay (cell death) in TC620 cells
Method: At 100 nM, 200 nM, and 400 nM, the percentage of dead cells was 28%, 36%, and 62%, respectively. The percentages of Trypan blue-positive cells treated with 200 nM (8%) and 400 nM (7.5%) mismatched oligonucleotide 1132 were similar to the lipofectin control (6%). Cells were treated with lipofectin, survivin antisense oligonucleotide 904 at 100, 200, or 400 nM, or mismatched oligonucleotide 1132 at 200 nM or 400 nM concentrations. Cells were harvested 48 hours after the treatment and stained with 0.04% Trypan blue as described for FIG. 4.
To further examine whether cell death induced by treatment of TC620 cells with survivin antisense oligonucleotides occurs via a caspase-dependent mechanism, another experiment was performed to investigate the effect of a caspase inhibitor on cell death. […] TC620 cells were treated with lipofectin or 600 nM survivin antisense oligonucleotide 904, 906, or mismatch oligonucleotide 1132 alone, or co-treated with 20 μM zVAD-fmk.
Cells were harvested 48 hours after survivin antisense treatment, stained with 0.04% Trypan blue (GIBCO), and counted on a hemocytometer. The number of Trypan blue positive cells relative to the total number of cells in each field was obtained and the data were expressed as a percentage of dead cells relative to the total cell number. Individual experiments were performed in triplicate. MSN cell studies were performed three times, while studies in TC620 cells were performed once.

MSN cells = test: Propidium iodide staining, nuclear morphology of MSN cells; conditions: for nuclear morphology by PI staining: 600 nM (FIG. 9); for percentage of cells with abnormal nuclear morphology by PI staining: 600 nM alone (FIG. 9G)
Method: Propidium iodide (PI) staining and phase microscopy were used to assess the nuclear morphology of the survivin antisense oligonucleotide-treated MSN cells. MSN cells were treated with lipofectin (FIG. 9A), or 600 nM mismatch oligonucleotide 1132 (FIG. 9B) or survivin antisense oligonucleotide 904 (FIGS. 9C and 9E) or 906 (FIG. 9D), and stained with PI. To assess the effect on nuclear morphology of co-administration of survivin antisense oligonucleotide and the caspases inhibitor zVAD-fmk, MSN cells were treated with 600 nM survivin antisense oligonucleotide 904, 906, or mismatch oligonucleotide 1132 alone, or in the presence of 20 μM zVAD-fmk, and stained with PI (FIG. 9G).
Survivin antisense oligonucleotide-treated cells were fixed with 4% paraformaldehyde for 30 min at room temperature, washed with 1×TBS, permeabilized with 0.1% Triton X-100 for 30 min and treated with 10 μg/ml DNasc free RNase A (Sigma) for 60 min. Nuclei were stained with 200 μg /ml PI for 30 min at 4° C. and washed twice with 1×TBS. Nuclear morphology was assessed on an inverted Olympus 1×70 fluorescence microscope equipped with phase and epifluorescence optics. For each treatment about 600 nuclei were scored as normal, condensed (apoptotic), or abnormal (macronuclei, multilobed) on 15 random, 40×objective fields in duplicate. Quantification results are mean±SEM obtained from two independent experiments performed in duplicate.

[3] = test system: apoptosis-inducing factor (AIF); test: AIF immunostaining and DAPI double-labeling of MSN cells; conditions: for AIF localization: 600 nM (FIGS. 9H-9K)
Method: To examine whether down-regulation of survivin induces AIF nuclear translocation, AIF and DAPI double-labeling was performed on MSN cells treated with lipofectin (FIG. 9H), or 600 nM survivin antisense oligonucleotide 904 (FIG. 9I), mismatch oligonucleotide 1132 (FIG. 9J), or survivin antisense oligonucleotide 906 (FIG. 9K).
Lipofectin, mismatch oligonucleotide 1132 or survivin antisense oligonucleotide-treated MSN cells were fixed and permeabilized as described for PI staining, and blocked for 1 h at room temperature with 10% normal goat serum in 5% non-fat, dry milk in 1×TBS. […] Omission of the primary antibody confirmed that the immunostaining was specific. Cells were counterstained with the DNA-specific dye DAPI (1:1000 of a 1 mg/ml stock; 15 min at room temperature). Cells were examined with an Olympus 1×70 inverted microscope. Fluorescent images were collected using a 12-bit Photometrics cooled CCD camera. For each treatment, 15 random, 40×objective fields consisting of about 600 cells were examined. TRITC (red) and DAPI (blue) stained cells were scored as having AIF staining either in the mitochondria or the nucleus relative to the total number examined. In parallel, the DAPI stained nuclei were also scored as normal, condensed, or abnormal nuclei. Experiments were performed in duplicate.

[4] = 600 nM co-treated with 20 μM zVAD-fmk (FIG. 6B)

Substance: d(TCTTGGCTCTTTCTCTGTCC) (antisense dT*dC*dT*dT*dG*dG*dC*dT*dC*dT*dT*dT*dC*dT*dC*dT*dG*dT*dC*dC) [Oligo 904, 20-mer phosphorothioate survivin antisense oligonucleotide, complementary to survivin mRNA 5248-5267]
- percentage of TUNEL-positive cells (TC620 cells [1]; 400 nM): 52%
- percentage of TUNEL-positive cells (TC620 cells [1]; 600 nM): 63%
- percentage of dead (Trypan blue-positive) cells (TC620 cells [2]; 100 nM, 48 hours (FIG. 6A)): 28%
- percentage of dead (Trypan blue-positive) cells (TC620 cells [2]; 200 nM, 48 hours (FIG. 6A)): 36%
- percentage of dead (Trypan blue-positive) cells (TC620 cells [2]; 400 nM, 48 hours (FIG. 6A)): 62%
- percentage of Trypan blue positive cells (TC620 cells [2]; 600 nM alone (FIG. 6B)): 70%
- percentage of Trypan blue positive cells (TC620 cells [2]; [4]): 11%
- cell death, Trypan blue positive cells (TC620 cells [2]; 48 hours (FIG. 6A)): concentration-dependent increase in Trypan blue-positive (dead) cells; also recorded: dose-dependent increase in cell death
- nuclear morphology by PI staining (MSN cells): abnormal multiple multilobed nuclei
- percentage of cells with abnormal nuclear morphology by PI staining (MSN cells): 27%
- AIF localization [3]: nuclear translocation of AIF

Substance: d(GCTTCCCAGTCACATCCTGT) (antisense dG*dC*dT*dT*dC*dC*dC*dA*dG*dT*dC*dA*dC*dA*dT*dC*dC*dT*dG*dT) [Oligo 906, 20-mer phosphorothioate survivin antisense oligonucleotide, complementary to survivin mRNA 11897-11916]
- percentage of TUNEL-positive cells (TC620 cells [1]; 400 nM): 54%
- percentage of TUNEL-positive cells (TC620 cells [1]; 600 nM): 63%
- percentage of Trypan blue positive cells (TC620 cells [2]; 600 nM alone (FIG. 6B)): 67%
- percentage of Trypan blue positive cells (TC620 cells [2]; [4]): 15%
- nuclear morphology by PI staining (MSN cells): abnormal multiple multilobed nuclei
- percentage of cells with abnormal nuclear morphology by PI staining (MSN cells): 31%
- AIF localization [3]: nuclear translocation of AIF

Substance: d(GCACCTAGTCTCCCTGCACC) (DNA, all phosphorothioate, methylation of C not given here) [Oligo 1132, mismatched phosphorothioate control oligonucleotide, not complementary to survivin mRNA, reference compound]
- percentage of TUNEL-positive cells (TC620 cells [1]; concentration not given): 4%
- percentage of dead (Trypan blue-positive) cells (TC620 cells [2]; 200 nM, 48 hours (FIG. 6A)): 8%
- percentage of dead (Trypan blue-positive) cells (TC620 cells [2]; 400 nM, 48 hours (FIG. 6A)): 7.5%
- nuclear morphology by PI staining (MSN cells): normal nuclear morphology
- percentage of cells with normal-appearing nuclei by DAPI staining ([3]; 600 nM): 95%
- percentage of cells with nuclear localization / translocation of AIF ([3]; 600 nM): 4-8%
- AIF localization [3]: robust AIF staining in the cytosol
